# Assay results reported in patent US20210308228A1, “METHOD FOR REDUCING THE OCCURRENCE OF THROMBOSIS OR THROMBOEMBOLISM” (THE BOARD OF REGENTS OF THE UNIVERSITY OF TEXAS SYSTEM, priority 2020, published 2021).
# Marks after values point to notes of the source that are not given here.
# What was measured:
# [1] = tested on: FXa; experiment: Anti-FXa levels determined chromogenically (ACL-TOP) in plasma treated ex vivo with enoxaparin; type: biochemical, human; settings: for Anti FXa levels (IU/mL): median
# Text: (§1) Citrated plasma samples were thawed immediately prior to use. First, plasma from healthy, uninjured volunteers was used to optimize ex vivo dosing of enoxaparin. […] Given that the inventors spiked plasma with an enoxaparin dose of 0.13 IU/mL, our target anti-FXa level in response to enoxaparin was defined as 0.13 IU/mL. The responses to enoxaparin between healthy uninjured volunteers and trauma patients were compared by treating all plasma samples ex vivo with 0.13 IU/mL of enoxaparin. Trauma patient samples were additionally supplemented with AT using either FFP at a dose of 30% volume or AT concentrate in the form of THROMBATE III®, provided by Grifols, up to 80%, 120%, 150%, 180%, and 200% final concentration based on baseline values. This was done in an effort to improve patient plasma responses to enoxaparin to the levels observed in healthy controls. Similar to our previous work, the inventors chose FFP at a dose of 30% volume to model the effects of transfusing six units of plasma. Calculations were based on the activity (IUs) provided by the manufacturer for a given lot of THROMB ATE III® (approximately 500 IUs/10 mL) and the patient's baseline AT activity levels. AT supplementation was confirmed by measuring AT activity using ACL-TOP. Thrombin generation and anti-FXa levels were measured to assess the response to enoxaparin and supplementation with AT. Healthy volunteer plasma served as an uninjured control for normal AT, anti-FXa, and thrombin generation levels before and after treatment with enoxaparin.
# (§2) AT activity and anti-FXa levels were determined chromogenically using an ACL-TOP Coagulation Analyzer (Instrumentation Laboratory, Bedford Mass.). Thrombin generation was measured using a calibrated automated thrombogram (CAT) (Thermo Fisher Scientific, Waltham Mass.) as previously described. Relevant parameters resulting from CAT analysis include lag time (the time to initiation of thrombin generation; min), peak (the highest amount of thrombin generated; nM), time to peak [ttpeak] (the time it takes to achieve the peak; min), endogenous thrombin potential [ETP] (the total amount of thrombin generated over time; […]), and rate (the velocity of thrombin generation dictated by the slope of the thrombin generation curve; nM/min).
# [2] = tested on: thrombin generation; experiment: Thrombin generation by calibrated automated thrombogram (CAT) in plasma treated ex vivo; type: biochemical, human; settings: for Delta ETP (%) / Delta Lagtime (%) / Delta Peak (%) / Delta Rate (%) / Delta ttPeak (%): enoxaparin 0.13 U/mL, median change vs baseline
# Text: as §1, §2
# [3] = Healthy Donors (N = 15) plasma, enoxaparin 0.13 U/mL
# [4] = No PE patients (N = 46) plasma, enoxaparin 0.13 U/mL
# [5] = PE patients (N = 54) plasma, enoxaparin 0.13 U/mL
# [6] = Trauma Patients (N = 100) plasma, enoxaparin 0.13 U/mL
# [7] = Trauma Patients (N = 100) plasma
substance,measurement,setting,value
enoxaparin,Rate Anti FXa ≥ 0.13 (number),[1]; [3],15
same,Rate Anti FXa ≥ 0.13 (percentage),[1]; [3],(100%)
same,Anti FXa levels (IU/mL),[1]; [3],0.16 IU/mL
same,Rate Anti FXa ≥ 0.13 (number),[1]; [4],26
same,Rate Anti FXa ≥ 0.13 (percentage),[1]; [4],(57%)
same,Anti FXa levels (IU/mL),[1]; [4],0.14 IU/mL
same,Rate Anti FXa ≥ 0.13 (number),[1]; [5],24
same,Rate Anti FXa ≥ 0.13 (percentage),[1]; [5],(44%)
same,Anti FXa levels (IU/mL),[1]; [5],0.13 IU/mL
same,Rate Anti FXa ≥ 0.13 (number),[1]; [6],59
same,Rate Anti FXa ≥ 0.13 (percentage),"[1]; Trauma Patients (N = 100) plasma, enoxaparin 0.13 U/mL alone",(59%)*
same,Rate Anti FXa ≥ 0.13 (percentage),"[1]; Trauma Patients (N = 100) plasma, enoxaparin 0.13 U/mL alone, listed as enoxaparin",59%
same,Anti FXa levels (IU/mL),[1]; [6],0.13 IU/mL
same,Delta ETP (%),[2]; Healthy Donors (N = 15) plasma,−43%
same,Delta Lagtime (%),[2]; Healthy Donors (N = 15) plasma,6.6%
same,Delta Peak (%),[2]; Healthy Donors (N = 15) plasma,−55%
same,Delta Rate (%),[2]; Healthy Donors (N = 15) plasma,−65%
same,Delta ttPeak (%),[2]; Healthy Donors (N = 15) plasma,17%
same,Delta ETP (%),[2]; No PE patients (N = 46) plasma,−15.6%
same,Delta Lagtime (%),[2]; No PE patients (N = 46) plasma,6.6%
same,Delta Peak (%),[2]; No PE patients (N = 46) plasma,−30.6%
same,Delta Rate (%),[2]; No PE patients (N = 46) plasma,−45.4%
same,Delta ttPeak (%),[2]; No PE patients (N = 46) plasma,13.0%
same,Delta ETP (%),[2]; PE patients (N = 54) plasma,−13.2%
same,Delta Lagtime (%),[2]; PE patients (N = 54) plasma,7.9%
same,Delta Peak (%),[2]; PE patients (N = 54) plasma,−20.7%
same,Delta Rate (%),[2]; PE patients (N = 54) plasma,−34.2%
same,Delta ttPeak (%),[2]; PE patients (N = 54) plasma,10.7%
same,Delta ETP (%),[2]; [7],−14%
same,Delta Lagtime (%),[2]; [7],7.9%
same,Delta Peak (%),[2]; [7],−24%
same,Delta Rate (%),[2]; [7],−39%
same,Delta ttPeak (%),[2]; [7],12%
same,reduction in peak thrombin,"[2]; plasma of patients who did develop PE, ex vivo enoxaparin",20.7%
same,median reduction in peak thrombin,"[2]; plasma of patients who did not develop PE, ex vivo enoxaparin",30.6%
